How the values were obtained:
[1] = Reagent hydrolysis followed by UV absorbance of the aminobenzoate product; assay type: physicochemical
Experimental: One (1) μL NMIA in DMSO was added to the (+) NMIA tube and 1 μL neat DMSO was added to the (−) NMIA tube. The tubes were then mixed well. The reaction was incubated for 5 NMIA hydrolysis half-lives. To estimate the NMIA half-life between 15° C. and 75° C., the following equation was used: half life(minutes)=360×exp[−0.102×temperature(° C.)]. […] Thus, at 37° C., the reaction was incubated for about 45 minutes.
(§1) Hydrolysis was followed by adding (1.5 mM NMIA or 2.0 mM 1M7 in 300 μL DMSO) reagent to 1.1× buffer (2.7 mL, 6.7 mM MgCl2, 111 mM NaCl, 111 mM HEPES (pH 8.0)) equilibrated at 37° C. in a cuvette. Pseudo-first-order rates were obtained by monitoring the absorbance of the hydrolysis product (at 360 nm for 2-methylaminobenzoate and 430 nm for 2-methylamino-4-nitrobenzoate). Rates of adduct formation for [^32P]-labeled pAp-ethyl (10,000 cpm/μL) were obtained by adding 10% (v/v) reagent (5 mM final NMIA or 1M7 in DMSO) to 1.1× reaction buffer, quenching the reaction with 1 vol 250 mM dithiothreitol, resolving by gel electrophoresis (30% polyacrylamide; 29:1 acrylamide:bisacrylamide; 0.4 mm×28.5 cm×23 cm; 30 W; 45 minutes), and quantifying by phosphorimaging. Reaction rates were obtained using an equation that accounts for parallel reaction of NMIA or 1M7 by 2′-O-adduct formation (kadduct) and by hydrolysis (khydrolysis): fraction product=1−exp[(kadduct[reagent]/khydrolysis)(e^−(khydrolysis)t−1)]. Synthesis of Bacillus subtilis RNase P RNA
The reagent hydrolysis was monitored as the increase in UV absorbance of the aminobenzoate products. […] In contrast, NMIA required over 20 minutes to react to completion (FIG. 5).

pAp-ethyl = assay: 2′-O-adduct formation with [32P]-labeled pAp-ethyl; settings: for change in rate of reaction with pAp-ethyl from 0 to 20 mM Mg2+: 0 to 20 mM Mg2+ (FIG. 6)
Experimental: as §1
The ability of each compound to react with 3′-phosphoethyl-5′-adenosine monophosphate (pAp-ethyl) was then evaluated. pAp-ethyl contains a 2′-hydroxyl and 3′-phosphodiester monoanion.

[2] = Solubility of reagent stock in DMSO; assay type: physicochemical; settings: organic solvent or mixture; 10× stock in DMSO; read-out: stock concentration limit due to solubility of the reagent
Experimental: The concentration of this solution can vary with RNA length. For RNA reads of 100, 200 and 300 nucleotides, 10×NMIA concentrations of 130, 65 and 30 mM, can be used.

retroviral membrane = assay: NMIA modification of genomic RNA inside HIV-1 viral particles
Experimental: The structure of HIV-1 genomic RNA inside infectious virions was analyzed by treating viral particles with NMIA and then extracting and processing the modified RNA (the in virio state). Numerous reproducible differences between the ex virio and in virio states were observed that report virion-specific RNA structures and RNA-protein interactions.
Concentrated samples of either purified viral particles or particles treated with AT-2 (500 μL) in NMIA reaction buffer were treated with NMIA (50 μL, 100 mM) or neat DMSO (50 μL) for 50 minutes at 37° C. The virus particle production, AT-2 treatment, and NMIA modification steps were performed as a single continuous process and without intermediate storage steps.

NCp7-RNA interactions = biological target: T1, NCp7-RNA interactions (Human immunodeficiency virus type 1 group M subtype B, UniProt P12493); assay: AT-2 treatment of HIV-1 virions analyzed by hSHAPE; settings: in virio compared with AT-2 treated virions
T1 construct: expressed in transfected cells; host or cells: 293T cells cotransfected with pNL4-3 and pHCMV-G; the protein sits in the released virus particles
Source text: The most prominent protein ligand for genomic RNA in mature HIV virions is the nucleocapsid protein. The nucleocapsid protein (NCp7) contains two highly conserved zinc-knuckle motifs comprised of cysteine and histidine residues that coordinate zinc ions and bind preferentially to guanosine. These compact motifs are flanked by positively charged residues that interact at adjacent RNA elements. Zinc ejecting agents such as 2,2′-dithioldipyridine (or AT-2) quantitatively disrupt interactions between the zinc ion and its cysteine ligands to compromise NCp7-RNA interactions, but leave the surface of the virus particle intact. Nucleocapsid-RNA interactions were disrupted in situ by treating virions with AT-2. The resulting genomic RNA was analyzed using hSHAPE.
Aldrithiol-2 (AT-2, systematic name 2,2′-dithiodipyridine; 0.5 M in DMSO, 2.0 mL) or DMSO (2.0 mL) was added to 1.0 L virus supernatant and incubated overnight at 4° C. Virus particles from the (+) and (−) AT-2 experiments were pelleted separately by centrifugation (110,000 g, 4° C., 1.5 hours) through a 20% (w/v) sucrose cushion in phosphate buffered saline. Pellets were resuspended in 1.0 mL NMIA reaction buffer (50 mM Hepes (pH 8), 200 mM NaCl, 0.1 mM EDTA, and 10% fetal bovine serum). […]

## Cn1c(=O)oc(=O)c2ccccc21 [NMIA, N-methylisatoic anhydride]
[1]; 37° C., pH 8.0 buffer
  time required to react to completion: over 20 minutes
[1]; pH 8, 37° C., from half life = 360×exp[−0.102×temperature], read-out: NMIA hydrolysis half-life
  half-life: 8.3 min
pAp-ethyl
  change in rate of reaction with pAp-ethyl from 0 to 20 mM Mg2+: greater than 2 fold
[2]
  solubility: ≤ 130 mM
Retroviral membrane
  passage across the retroviral membrane: readily crosses the retroviral membrane

## c1ccc(SSc2ccccn2)nc1 [AT-2, 2,2′-dithiodipyridine]
NCp7-RNA interactions
  specificity of the effect of AT-2 treatment on SHAPE reactivity of genomic RNA: highly specific

## Cn1c(=O)oc(=O)c2ccc([N+](=O)[O-])cc21 [1M7, 1-methyl-7-nitroisatoic anhydride]
[1]; 37° C., pH 8.0 buffer
  time until reaction is complete: about 70 seconds
[1]; HEPES buffer with 10% DMSO, 37° C., pH 8.0 buffer, 10% DMSO
  half-life at 0.2 mM: 0.233 min
[1]; control experiments
  dependence of hydrolysis on Mg2+ concentration: independent of Mg^2+ concentration
pAp-ethyl
  increase in rates of hydrolysis and of 2′-hydroxyl acylation relative to NMIA: 20 fold
  change in rate of reaction with pAp-ethyl from 0 to 20 mM Mg2+: negligible
pAp-ethyl; 5 mM reagent
  rate of reaction with pAp-ethyl, compared with NMIA: significantly more rapidly

From patent US8318424B2, “High-throughput RNA structure analysis” (The University of North Carolina at Chapel Hill, priority 2006, dated 2012)
